Measured values: US4711895A, “4-hydroxy-2-cyclopentenone, process for production thereof, pharmaceutical composition comprising it” (Teijin Limited, priority 1984, dated 1987)
Converted amounts (≈) assume the structure as drawn. Like-named read-outs stand apart in the source and are kept apart here.

Columns and labels:
L1210 leukemia cells = assay: Action of inhibiting proliferation of L1210 leukemia cell; assay type: cell-based; details: RPMI medium, 10% FCS, 37° C., 4 days, trypan blue
Description: Measurement of the action of inhibiting Proliferation of L1210 leukemia cell
L1210 leukemia cells were added to an RPMI medium containing 10% FCS (fetal calf serum), and the concentration of the cells was adjusted to […]. Each of the test compounds shown in Table I was dissolved in 99.5% ethanol. Prior to use, the final concentration of the ethanol solution was adjusted to less than 0.1%, and it was added to the culture medium. The culture medium was then maintained at 37° C. in a stationary condition for 4 days. After the cultivation, the number of surviving cells was measured by dyeing with trypan blue. As a control, 0.1% ethanol was used. A dose-reaction curve plotted from the ratios of proliferation against the control, and IC50 was determined.

[1] = test system: P388 mouse leukemia cells; assay: Antitumor effect on P388 mouse leukemia tumor in ICR mice; assay type: in vivo; details: i.p., 5 days
Description: Measurement of the antitumor effect on P338 mouse leukemia tumor
1×10^5 P388 mouse leukemia cells were intraperitoneally administered to ICR mice. After the lapse of 24 hours, each of the test compounds shown in Table II was intraperitoneally administered to the mice for 5 days. The periods of survival of these animals were examined and the increase of their life span (ILS%) were determined.

[2] = Mus musculus, 96 h, read-out: IC50

Structure (SMILES)	IC50 (L1210 leukemia cells; [2])	Increase of life span ILS (%) ([1]; 5 mg/kg/day)	Survival ([1]; 5 mg/kg/day)	Increase of life span ILS (%) ([1]; 10 mg/kg/day)	Survival ([1]; 10 mg/kg/day)	IC50 (L1210 leukemia cells)	Increase of life span ILS (%) ([1]; 2.5 mg/kg/day)	Survival ([1]; 2.5 mg/kg/day)	Increase of life span ILS (%) ([1]; 15 mg/kg/day)	Survival ([1]; 15 mg/kg/day)
COC(=O)CCCCC/C=C1\C(=O)C(Cl)=CC1(O)CCC(C)CCCC(C)C (stereo not drawn) [Compound 156, 2-chloro-4-(3,7-dimethyloctyl)-4-hydroxy-5-[(Z)-6-methoxycarbonylhexylidene]-2-cyclopentenone]	0.035 µg/mL (≈ 0.0847 µM)	–	–	–	–	–	–	–	–	–
COC(=O)CCCCCC(O)C1C(=O)C(Cl)=CC1(O)CCCc1ccc(OC)c(OC)c1 (stereo not drawn) [Compound 226, 2-chloro-4-hydroxy-4-[3-(3,4-dimethoxyphenyl)propyl]-5-(1-hydroxy-6-methoxycarbonylhexyl)-2-cyclopentenone]	0.2 µg/mL (≈ 0.426 µM)	10.0%	11.0 ± 0 days	–	–	–	–	–	–	–
COC(=O)CCCCC/C=C1/C(=O)C(Cl)=CC1(O)CCC(C)CCCC(C)C (stereo not drawn) [Compound 158, 2-chloro-4-(3,7-dimethyloctyl)-4-hydroxy-5-[(E)-6-methoxycarbonylhexylidene]-2-cyclopentenone]	0.025 µg/mL (≈ 0.0605 µM)	–	–	–	–	–	–	–	–	–
CCCCCCCCC1(O)C=C(Cl)C(=O)C1=CCCCCCC(=O)OC (stereo not drawn) [Compound 154, 2-chloro-4-hydroxy-5-(6-methoxycarbonylhexylidene)-4-octyl-2-cyclopentenone]	0.03 µg/mL (≈ 0.0779 µM)	–	–	7.1%	10.5 ± 0.8 days	–	–	–	–	–
COC(=O)CCCCCC=C1C(=O)C(Cl)=CC1(O)CCCc1ccc(OC)c(OC)c1 (stereo not drawn) [Compound 152, 2-chloro-4-hydroxy-4-[3-(3,4-dimethoxyphenyl)propyl]-5-(6-methoxycarbonylhexylidene)-2-cyclopentenone]	0.06 µg/mL (≈ 0.133 µM)	–	–	19.4%	11.7 ± 1.1 days	–	–	–	–	–
O=C1C=CC(O)(CCCCOc2ccccc2)C1=C/C=C/C(O)CCCO (stereo not drawn) [Compound 148]	–	32.7%	13.0 ± 1.4 days	29.6%	12.7 ± 0.7 days	1.5 µg/mL (≈ 4.03 µM)	15.3%	11.3 ± 0.5 days	–	–
CC(C)=CCCC(C)=CC(O)C1C(=O)C=CC1(O)CCCCOc1ccccc1 (stereo not drawn) [Compound 228, 4-(4-phenoxybutyl)-4-hydroxy-5-(3,7-dimethyl-1-hydroxy-2,6-octadiene)-2-cyclopentenone]	0.4 µg/mL (≈ 1 µM)	–	–	–	–	–	–	–	4.1%	10.2 ± 0.9 days
CCCCCCCC[C@@]1(O)C=CC(=O)/C1=C/CCCCCC(=O)OC [Compound 142, (4R)-5-[(E)-6-methoxycarbonylhexylidene]-4-hydroxy-4-octyl-2-cyclopentenone]	0.15 µg/mL (≈ 0.428 µM)	5.4%	10.3 ± 0.5 days	15.3%	11.3 ± 0.5 days	–	–	–	–	–
CCCCCCCC[C@@]1(O)C=CC(=O)/C1=C\CCCCCC(=O)OC [Compound 144, (4R)-5-[(Z)-6-methoxycarbonylhexylidene]-4-hydroxy-4-octyl-2-cyclopentenone]	0.15 µg/mL (≈ 0.428 µM)	2.9%	10.7 ± 0.5 days	17.3%	12.2 ± 1.2 days	–	–	–	12.5%	11.7 ± 0.5 days
